Data as given in patent publication US20050287203A1, “Formulation comprising testosteron undecanoate and castor oil” (priority 2002, published 2005).

Assay: concentration of TU attainable in castor oil solution
Format: physicochemical
Conditions: liquid carrier castor oil
Protocol: The choice of castor oil as the liquid carrier, in conjunction with the choice of testosterone undecanoate as the androgen, makes for a solution which can comprise about 200-250 mg of TU per ml. This amounts to approximately […] of testosterone per ml. This is a novel achievement for any orally administerable solution of testosterone in any form. The invention, in one aspect, therefore includes a pharmaceutical formulation in the form of a capsule for oral administration comprising testosterone undecanoate as the active ingredient dissolved in a pharmaceutically acceptable liquid carrier in a concentration of 200-250 mg/ml.

CCCCCCCCCCC(=O)O[C@H]1CC[C@H]2[C@@H]3CCC4=CC(=O)CC[C@]4(C)[C@H]3CC[C@]12C [testosterone undecanoate]
amount of TU the solution in castor oil can comprise: 200-250 mg of TU per ml
